Data published in patent US20140363889A1, “METHOD FOR PRODUCING MULTIPOLAR CELL” (TOAGOSEI CO., LTD., priority 2011, published 2014).

Columns and labels:
Assay type in all cases: cell-based
[1] = tested on: human alveolar basal epithelial adenocarcinoma cells, A549; experiment: Multipolarity-inducing activity assay 3 (A549 cells synchronized in G2 phase (or M phase)); conditions: 10 μM peptide, number of M-phase cells 100
Protocol: Some of the sample peptides obtained in Example 1 were tested for multipolarity-inducing activity against target cultured tumor cells. As the tumor cells tested, cells forming a […] (human alveolar basal epithelial adenocarcinoma cells, A549) were used. The cell line was cultured in the same manner as Example 2 described above. The resulting cultured tumor cells were synchronized in the G2 phase (or M phase) in the same manner as Example 3 described above. Similarly to Examples 2 and 3 described above (the number of M-phase cells was 100 herein), the presence of multipolarity was observed by immunofluorescence under fluorescence microscope.

HeLa cell line (HeLa S3) [2] = experiment: Multipolarity-inducing activity assay 1 (cells synchronized in G1 phase by double thymidine block); conditions: 10 μM peptide, 6 hours incubation; for Multipolar level (%): % multipolar cells relative to M-phase cells; for Number of multipolar cells: count among the M-phase cells observed
Protocol: Some of the sample peptides obtained in Example 1 were tested for multipolarity-inducing activity against target cultured tumor cells. Details of the assay are as described below.
As the tumor cells tested, a HeLa cell line (HeLa S3) was used. The cell line was cultured beforehand in a DMEM medium (i.e. Dulbecco MEM medium (DMEM medium, a Gibco product) containing 10% fetal bovine serum (FBS, a Gibco product), 2 mM of L-glutamine, 50 unit/mL of penicillin, and 50 μg/mL of streptomycin), and seeded at about 3×10^4 cells per well in an 8-well slide glass. Thymidine was added to the culture medium to a final concentration of 2.5 mM. Incubation was carried out at 37° C. under 5% CO2 for 16 hours. The culture medium was exchanged to remove thymidine and incubation was carried out for 8 more hours. Subsequently, thymidine was added again to a final concentration of 2.5 mM and incubation was carried out for 16 hours.
By such double thymidine block, the cells being cultured were synchronized in the G1 phase of the cell cycle. After such synchronization treatment, the culture medium was exchanged to remove thymidine and incubation was carried out for 2 more hours. Subsequently, one of the sample peptides was added to each well. In this example, one of Samples 1, 4, 5, 7, 9 and 11 was added to a peptide concentration in the well of 10 μM.
After a sample peptide was added as described above, the 8-well slid glass was incubated under the aforementioned conditions for 6 hours.
After 6 hours of incubation, the presence of multipolarity was observed by immunofluorescence under fluorescence microscope. In particular, after 6 hours of incubation following the addition of a sample peptide, the cultured cells were subjected to nuclear staining with DAPI (4′,6-diamidino-2-phenylindole), and using α-tubulin as a marker for spindles, the cells were tested for the presence of tubulin (i.e. the presence of spindles) by immunofluorescence with an anti-tubulin antibody (primary antibody) to identify the tubulin and a fluorescent dye (ALEXA FLUOR(registered trademark) 555)-labeled secondary antibody to identify the primary antibody. In addition, using centrin-2 as a marker for centrosomes (centrioles), the cells were tested for the presence of centrin-2 (i.e. the presence of centrosomes) by immunofluorescence with an anti-centrin-2 antibody (primary antibody) to identify the centrin-2 and a fluorescent dye-labeled secondary antibody to identify the primary antibody.

HeLa cell line (HeLa S3) [3] = experiment: Multipolarity-inducing activity assay 2 (cells synchronized in G2 phase (or M phase) by nocodazole); conditions: 10 μM peptide, 4 hours with peptide + 2 hours without; for Multipolar level (%): % multipolar cells relative to M-phase cells; for Number of multipolar cells: count among 60 M-phase cells
Protocol: The same sample peptides as those used in Example 2 above were used and tested for multipolarity-inducing activity against cultured tumor cells synchronized in the G2 phase (or M phase). Details of the assay are as described below.
As the tumor cells tested, a HeLa cell line (HeLa S3) was used. The cell line was cultured under the same conditions as Example 2 and seeded at about 3×10^4 cells per well in an 8-well slide glass. Thymidine was added to the culture medium to a final concentration of 2.5 mM. Incubation was carried out at 37° C. under 5% CO2 for 18 hours. The culture medium was exchanged to remove thymidine and incubation was carried out for 6 more hours. Subsequently, nocodazole was added to a final concentration of 0.1 μg/mL and incubation was carried out for 16 hours. By such addition of nocodazole, the cells being cultured were synchronized in the G2 phase (M phase) of the cell cycle.
After the 16 hours of incubation, without exchanging the culture medium (i.e. with nocodazole being contained), one of the sample peptides was added to each well to a peptide concentration in the well of 10 μM and incubation was carried out for 4 hours. Subsequently, the culture medium was exchanged and incubation was continued for 2 more hours without nocodazole or the sample peptide.
After the 2 hours of incubation, in the same manner as Example 2, the presence of multipolarity was observed by immunofluorescence under fluorescence microscope.

| Sequence | Multipolar level (%) [1] [%] | Multipolar level (%) (HeLa cell line (HeLa S3) [2]) | Number of multipolar cells (HeLa cell line (HeLa S3) [2]) | Multipolar level (%) (HeLa cell line (HeLa S3) [3]) | Number of multipolar cells (HeLa cell line (HeLa S3) [3]) |
| --- | --- | --- | --- | --- | --- |
| EFEYFHPATFRL [Sample 8] | 26 | – | – | – | – |
| GAVTYSRISGQY [Sample 10] | 29 | – | – | – | – |
| GPHHYWYHLRLP [Sample 4] | 28 | 13.6 | 14 | 48.3 | 29 |
| GPHLGMNQRRRP [Sample 9] | 27 | 10.4 | 11 | 55.0 | 33 |
| NMTTYPMHNNTV [Sample 6] | 32 | – | – | – | – |
| NMTTYPMHNNTVKKRTLRKNDRKKR [Sample 16] | 33 | – | – | – | – |
| QSPVNHHYHYHI [Sample 5] | 34 | 10.8 | 12 | 41.7 | 25 |
| SLLPHSNHAKHY [Sample 7] | 28 | 13.0 | 13 | 43.3 | 26 |
| SVSVGMKPSPRP [Sample 1] | 30 | 11.5 | 12 | 40.0 | 24 |
| SVSVGMKPSPRPKKRTLRKNDRKKR [Sample 11] | 32 | 12.7 | 13 | 41.7 | 25 |
| TPSLPPTMFRLT [Sample 3] | 32 | – | – | – | – |
